“And” between values parts separate entries of the source, which are not always exact repeats. Equal entries are not always repeated.
Tested on: MCF-7 breast cancer cells
Assay: MCF-7 cell viability (PrestoBlue Cell Viability Reagent, fluorescence)
Assay type: cell-based, human
Settings: individual ingredients, 2 mg/0.2 ml, 24 h, single replicate wells (Table 3)
Protocol: In order to assess this activity, a well-established line of breast cancer cells used in cancer research was selected. MCF-7 is a widely studied cancer cell line derived from breast adenocarcinoma, it was proven to be a suitable model cell line for breast cancer investigations worldwide, including those regarding anticancer drugs.
The cells were cultured with growth medium and seeded in two 96 well plates incubated at 37 Celsius. The HCBCP solution was prepared by dissolving the powder in DPBS as per Table 1, below.
The obtained solutions were sterilized by 0.22-micron filtration.
An amount of 0.2 ml was applied in each test tube providing 2 mg of HCBCP. […]
After incubation period of 24 and 48 hours, cell viability was measured using PrestoBlue™ Cell Viability Reagent, according to manufacturer instructions.
Fluorescence was detected at excitation wavelength of 560 nm and an emission of 590 nm, using TECAN SPARK 10M microplate reader, at 24 and 48 hours after application. The fluorescence data is expressed as percentage of cell viability (%) compared to vehicle control.
Percentage of cell viability was calculated using the following formula: [(fluorescence of treated cells−mean background fluorescence)/(fluorescence of cells with vehicle control−mean background fluorescence)]×100, at 24 and 48 hours after application. […]

Question: Which FU-background does the source give for O=c1c(O)c(-c2ccc(O)c(O)c2)oc2cc(O)cc(O)c12 [BF 2 Q, Quercetin] here?
Answer: 16881.00 FU and 16665.00 FU and 15291.00 FU and 14944.00 FU

Question: What about the “Fluorescence units (FU)” value of the same compound?
Answer: 22892 FU and 22876 FU and 21302 FU

Reference: patent US20240290133A1, “HERBAL COMPOSITION FOR BREAST CANCER PREVENTION” (priority 2021, published 2024)
